Measured values taken from patent US20240252652A1, “PROTEINS HAVING UNNATURAL AMINO ACIDS AND METHODS OF USE” (The Regents of the University of California, priority 2021, published 2024).

Legend:
m^6A modified RNA = assay: GRIP-seq (high-throughput sequencing); type: cell-based, human
Excerpt: To detect endogenous m^6A sites in mammalian cells throughout the transcriptome, we developed GRIP-seq through combining GRIP for m^6A with high-throughput sequencing, enabling global identification of m^6A sites in vivo with single-nucleotide resolution (FIG. 12A). In brief. HEK293T cells expressing YTH-397SFY protein (FIG. 19A) were lysed and treated with RNase to partially digest RNA into short fragments. After GRIP for these cell lysates (FIG. 19A), the purified protein-RNA cross-links were treated with proteinase K to release the cross-linked RNA fragments, which were converted into a cDNA library through adapting the enhanced CLIP protocol and then subjected to high-throughput sequencing. All m^6A sites cross-linked by YTH-397SFY protein in vivo would be captured and identified by reverse transcription termination at the upstream cross-linked nucleotides. Van Nostrand et al. Nat. Methods 13:508-514 (2016)
We generated four pairs of GRIP-seq libraries. For each pair, we generated one library for the INPUT sample, which represents the RNA fragments from the whole cell lysate, and one library for the IP sample, which represents the RNA fragments cross-linked with the purified YTH proteins. […] For each library, around 10 to 35 million reads were obtained (data not shown). After removing adaptors, we first mapped the reads to the transcriptome. […]

HEK293T cells = assay: Cell viability assay (CellTiter-Blue); type: cell-based, human; details: 0-1 mM SFY, 24 h or 48 h
Method: Error bars represent s.e.m.; n=3 independent tests.
Cell viability assay. 2×10^4 cells/well of HEK293T cells were seeded in a 96-well plate. On the next day, the media were replaced with fresh DMEM media supplemented with 0, 0.0625, 0.125, 0.25, 0.5, or 1 mM of SFY. The SFY-treated and control cells were cultured for an additional 24-48 h at 37° C. and then analyzed with CellTiter-Blue R Cell Viability Assay following the manufacturer's instructions.

GST dimer = assay: Cross-linking of GST-103SFY-107X in live mammalian cells; type: cell-based; details: HEK293T cells, Western blot
Excerpt: To determine which amino acid residues could react with SFY via proximity-enabled reactivity directly in cells, we coexpressed in E. coli the Z protein and an affibody (Afb) specifically binding it. Based on the crystal structure of Afb-Z complex, we introduced SFY at site 24 of the Z protein and various natural residues at site 7 of the affibody (FIG. 11D), placing the two residues in close proximity upon Afb-Z binding. (Wang et al. J. Am Chem. Soc. 140:4995-4999 (2018)). After expression of Afb(24SFY) and Z(7X) (X=target residue) for 6 h. cells were lysed and analyzed with Western blot under denatured conditions (FIG. 11E). Crosslinking bands corresponding to the adduct of Afb and Z were detected for target residue His. Tyr, and Lys, for both Mm-tRNA^Pyl/MmSFYRS and Ma-tRNA^Pyl/MaSFYRS. We then purified 6×His-tagged Z and Afb proteins from cells and analyzed with SDS-PAGE. Consistently, a protein band corresponding to the cross-linked Z with Afb was clearly observed for Afb-7Lys. Afb-7His, and Afb-7Tyr (FIG. 11E). We further tested if SFY could crosslink with these residues in mammalian cells. […] (Liu et al. J. Am Chem. 141:9458-9462 (2019)). We incorporated SFY at site 103 of GST and mutated residue 107 to various target residues. HEK293T cells expressing these GST mutants were lysed and Western blotted to detect covalent GST dimer formation (FIG. 11G). […]

Structure (SMILES): COc1ccc(C[C@H](N)C(=O)O)cc1S(=O)(=O)F [SFY, (S)-1-carboxy-2-(3-(fluorosulfonyl)-4-methoxyphenyl)ethan-1-aminium]
- RNA nucleotides cross-linked in vivo (m^6A modified RNA): all four RNA nucleotides
- toxicity to HEK293T cells (HEK293T cells): did not observe obvious toxicity
- target residues reacting (covalent GST dimer) (GST dimer): react with His. Tyr, and Lys
